Test results taken from patent US6737383B1, “Herbicidal oxadiazolidines” (priority 1999, dated 2004).

What was measured:
bedstraw = experiment: Test B pre/postemergence bedstraw; format: in vivo, Galium aparine; conditions: for Bedstraw plant response rating: Postemergence
Outline: (§1)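 Response is a visual 0-to-10 score relative to untreated plants, where 0 means no effect and 10 means complete control, taken twelve to sixteen days after application. Treatments went onto soil at planting and onto foliage of 1- to 4-leaf plants, using a surfactant-containing non-phytotoxic solvent.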

blackgrass = experiment: Test B pre/postemergence blackgrass; format: in vivo, Alopecurus myosuroides
Outline: as §1

surinam grass = experiment: Test B pre/postemergence surinam grass; format: in vivo, Brachiaria decumbens
Outline: as §1

cocklebur = experiment: Test B pre/postemergence cocklebur; format: in vivo, Xanthium strumarium
Outline: as §1

corn = experiment: Test B pre/postemergence corn; format: in vivo, Zea mays
Outline: as §1

crabgrass = experiment: Test B pre/postemergence crabgrass; format: in vivo, Digitaria sanguinalis
Outline: as §1

rape = experiment: Test B pre/postemergence rape; format: in vivo, Brassica napus
Outline: as §1

soybean = experiment: Test B pre/postemergence soybean; format: in vivo, Glycine max
Outline: as §1

sugar beet = experiment: Test B pre/postemergence sugar beet; format: in vivo, Beta vulgaris
Outline: as §1

velvetleaf = experiment: Test B pre/postemergence velvetleaf; format: in vivo, Abutilon theophrasti
Outline: as §1

wheat = experiment: Test B pre/postemergence wheat; format: in vivo, Triticum aestivum
Outline: as §1

wild oat = experiment: Test B pre/postemergence wild oat; format: in vivo, Avena fatua
Outline: as §1

purple nutsedge = experiment: Test B pre/postemergence purple nutsedge; format: in vivo, Cyperus rotundus
Outline: as §1

rice = experiment: Test B flood test rice; format: in vivo, Oryza sativa
Outline: (§2)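 Each value is a visual injury score relative to controls, with 10 meaning complete control and 0 no effect. Evaluation took place twelve to sixteen days after the 2-leaf-stage plants were treated and kept in the greenhouse.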

smallflower flatsedge = experiment: Test B flood test smallflower flatsedge; format: in vivo, Cyperus difformis
Outline: as §2

duck salad = experiment: Test B flood test duck salad; format: in vivo, Heteranthera limosa
Outline: as §2

bamyardgrass = experiment: Test B flood test barnyardgrass; format: in vivo, Echinochloa crus-galli
Outline: as §2

[1] = Preemergence, Rate 62 g/ha, scale of 0 to 10 where 0 is no effect and 10 is complete control
[2] = Postemergence, Rate 125 g/ha, scale 0 to 10, 0 is no effect, 10 is complete control
[3] = Postemergence, Rate 250 g/ha, scale 0 to 10
[4] = Postemergence, Rate 500 g/ha, scale of 0 to 10 where 0 is no effect and 10 is complete control
[5] = Preemergence, Rate 125 g/ha, scale 0 to 10, 0 is no effect, 10 is complete control
[6] = Preemergence, Rate 250 g/ha, scale 0 to 10, 0 is no effect, 10 is complete control
[7] = Preemergence, Rate 500 g/ha, scale 0 to 10, 0 is no effect, 10 is complete control
[8] = Rate 62 g/ha, Postemergence, scale 0 to 10, 0 no effect, 10 complete control
[9] = Rate 62 g/ha, flood test species, Pre-emergence, visual evaluation after twelve to sixteen days
[10] = Rate 125 g/ha, under heading Pre-emergence, flood test species, visual evaluation after twelve to sixteen days
[11] = Rate 250 g/ha, Pre-emergence (flood test species), scale 0 to 10, 0 is no effect, 10 is complete control
[12] = Rate 500 g/ha, Pre-emergence, flood test species, scale 0 to 10 (0 no effect, 10 complete control)

CC(C)N(C(=O)n1oc(=O)n(Cc2cnc(Cl)s2)c1=O)c1ccc(F)cc1 [Compound 482]
2: Velvetleaf plant response rating (velvetleaf; [7])
1: Crabgrass plant response rating (crabgrass; [3]) | Soybean plant response rating (soybean; [2]) | Soybean plant response rating (soybean; [3]) | Soybean plant response rating (soybean; [8])
8: Crabgrass plant response rating (crabgrass; [5]) | Crabgrass plant response rating (crabgrass; [6]) | Crabgrass plant response rating (crabgrass; [7])
4: Blackgrass plant response rating (blackgrass; [7])
3: Crabgrass plant response rating (crabgrass; [4]) | Plant response rating, Crabgrass (crabgrass; [1]) | Wild oats plant response rating (wild oat; [7])
0: Bedstraw plant response rating (bedstraw; Rate 125 g/ha, scale 0 to 10, 0 is no effect, 10 is complete control) | Bedstraw plant response rating (bedstraw; Rate 250 g/ha, scale 0 to 10) | Plant response rating, Bedstraw (bedstraw; [1]) | Bedstraw plant response rating (bedstraw; Rate 62 g/ha, scale 0 to 10, 0 no effect, 10 complete control) | Blackgrass plant response rating (blackgrass; [2]) | Blackgrass plant response rating (blackgrass; [3]) | Blackgrass plant response rating (blackgrass; [4]) | Plant response rating, Blackgrass (blackgrass; [1]) | Blackgrass plant response rating (blackgrass; [5]) | Blackgrass plant response rating (blackgrass; [6]) | Blackgrass plant response rating (blackgrass; [8]) | B. signalgrass plant response rating (surinam grass; [2]) | B. signalgrass plant response rating (surinam grass; Postemergence, Rate 250 g/ha, scale 0 to 10, 0 no effect, 10 complete control) | B. signalgrass plant response rating (surinam grass; [4]) | Plant response rating, B. signalgrass (surinam grass; [1]) | B. signalgrass plant response rating (surinam grass; [5]) | B. signalgrass plant response rating (surinam grass; [6]) | B. signalgrass plant response rating (surinam grass; [7]) | B. signalgrass plant response rating (surinam grass; [8]) | Cocklebur plant response rating (cocklebur; [2]) | Cocklebur plant response rating (cocklebur; [3]) | Cocklebur plant response rating (cocklebur; [4]) | Plant response rating, Cocklebur (cocklebur; [1]) | Cocklebur plant response rating (cocklebur; [5]) | Cocklebur plant response rating (cocklebur; [6]) | Cocklebur plant response rating (cocklebur; [7]) | Cocklebur plant response rating (cocklebur; [8]) | Corn plant response rating (corn; [2]) | Corn plant response rating (corn; [3]) | Corn plant response rating (corn; [4]) | Plant response rating, Corn (corn; [1]) | Corn plant response rating (corn; [5]) | Corn plant response rating (corn; [6]) | Corn plant response rating (corn; [7]) | Corn plant response rating (corn; [8]) | Crabgrass plant response rating (crabgrass; [2]) | Crabgrass plant response rating (crabgrass; [8]) | Rape plant response rating (rape; [2]) | Rape plant response rating (rape; [3]) | Plant response rating, Rape (rape; [1]) | Rape plant response rating (rape; [5]) | Rape plant response rating (rape; [6]) | Rape plant response rating (rape; [7]) | Rape plant response rating (rape; [8]) | Plant response rating, Soybean (soybean; [1]) | Soybean plant response rating (soybean; [5]) | Soybean plant response rating (soybean; [6]) | Soybean plant response rating (soybean; [7]) | Sugarbeets plant response rating (sugar beet; [2]) | Sugarbeets plant response rating (sugar beet; [3]) | Plant response rating, Sugarbeets (sugar beet; [1]) | Sugarbeets plant response rating (sugar beet; [5]) | Sugarbeets plant response rating (sugar beet; [6]) | Sugarbeets plant response rating (sugar beet; [7]) | Sugarbeets plant response rating (sugar beet; [8]) | Velvetleaf plant response rating (velvetleaf; [2]) | Velvetleaf plant response rating (velvetleaf; [3]) | Plant response rating, Velvetleaf (velvetleaf; [1]) | Velvetleaf plant response rating (velvetleaf; [5]) | Velvetleaf plant response rating (velvetleaf; [6]) | Velvetleaf plant response rating (velvetleaf; [8]) | Wheat plant response rating (wheat; [2]) | Wheat plant response rating (wheat; [3]) | Plant response rating, Wheat (wheat; [1]) | Wheat plant response rating (wheat; [5]) | Wheat plant response rating (wheat; [6]) | Wheat plant response rating (wheat; [7]) | Wheat plant response rating (wheat; [8]) | Wild oats plant response rating (wild oat; [2]) | Wild oats plant response rating (wild oat; [3]) | Plant response rating, Wild oats (wild oat; [1]) | Wild oats plant response rating (wild oat; [5]) | Wild oats plant response rating (wild oat; [6]) | Wild oats plant response rating (wild oat; [8]) | Nutsedge plant response rating (purple nutsedge; [2]) | Nutsedge plant response rating (purple nutsedge; [3]) | Plant response rating, Nutsedge (purple nutsedge; [1]) | Nutsedge plant response rating (purple nutsedge; [5]) | Nutsedge plant response rating (purple nutsedge; [6]) | Nutsedge plant response rating (purple nutsedge; [7]) | Nutsedge plant response rating (purple nutsedge; [8]) | Plant response rating, Rice (0 to 10 scale, 0 is no effect, 10 is complete control) (rice; [9]) | Rice plant response rating (0 to 10 scale, 0 is no effect, 10 is complete control) (rice; [10]) | Rice plant response rating (rice; [11]) | Rice plant response rating (rice; [12]) | Plant response rating, S. Flatsedge (0 to 10 scale, 0 is no effect, 10 is complete control) (smallflower flatsedge; [9]) | S. Flatsedge plant response rating (0 to 10 scale, 0 is no effect, 10 is complete control) (smallflower flatsedge; [10]) | S. Flatsedge plant response rating (smallflower flatsedge; [11]) | S. Flatsedge plant response rating (smallflower flatsedge; [12]) | Plant response rating, Ducksalad (0 to 10 scale, 0 is no effect, 10 is complete control) (duck salad; [9]) | Ducksalad plant response rating (0 to 10 scale, 0 is no effect, 10 is complete control) (duck salad; [10]) | Ducksalad plant response rating (duck salad; [11]) | Ducksalad plant response rating (duck salad; [12]) | Plant response rating, Barnyardgrass (0 to 10 scale, 0 is no effect, 10 is complete control) (bamyardgrass; [9]) | Barnyardgrass plant response rating (0 to 10 scale, 0 is no effect, 10 is complete control) (bamyardgrass; [10]) | Barnyardgrass plant response rating (bamyardgrass; [11]) | Barnyardgrass plant response rating (bamyardgrass; [12])
